Test results: patent US9205064B2, “Methods for the diagnosis of oncological disorders using epimetabolic shifters, multidimensional intracellular molecules, or environmental influencers” (Berg LLC, priority 2009, dated 2015)

Assays:
[1] = test system: SCC cells; experiment: Real-time PCR Apoptosis Array; assay type: cell-based
Method: The control cells were untreated cells.
RNA was quantified by measuring Optical Density at 260 nm.
The genes in the Apoptosis array that appear to be regulated in SCC cells are described in Table 7. […] By 24 hours, the regulation is decreased.

[2] = test system: oncogenic and normal cell lines; experiment: Minimal CoQ10 concentration and treatment time for induction of early apoptosis (Bcl-2, caspase activation, annexin V); assay type: cell-based
Method: CoQ10 treatment of cells was carried out as described in detail below in the Materials and Methods. Induction of apoptosis was assessed in the treated cells by monitoring indicators of early apoptosis (e.g., Bcl-2 expression, caspase activation and by using annexin V assays) as described below. From these studies, the minimal CoQ10 dosage, e.g., concentration of CoQ10 and time of treatment, required to induce apoptosis in the panel of cell lines was determined.
Cells were cultured in T-75 flasks with relevant medium supplemented with 10% Fetal Bovine Serum (FBS), 1% PSA (penicillin, streptomycin, amphotericin B) (Invitrogen and Cellgro) in a 37° C. incubator with 5% CO2 levels until 70-80% confluence was reached. To harvest cells for treatment, flasks were primed with 1 mL Trypsin, aspirated, trypsinized with an additional 3 mL, and incubated at 37° C. for 3-5 minutes. Cells were then neutralized with an equal volμme of media and the subsequent solution was centrifuged at 10,000 rpm for 8 minutes. The supernatant was aspirated and the cells were resuspended with 8.5 ml of media. A mixture of 500 ul of the resuspension and 9.5 ml of […] was read twice by a coulter counter and the appropriate number of cells to be seeded into each dish was determined Control and concentration ranging from 0-200 μM groups were examined in triplicate. From a 500 μM CoQ-10 stock solution, serial dilutions were performed to achieve desired experimental concentration in appropriate dishes. Dishes were incubated in a 37° C. incubator with 5% CO2 levels for 0-72 hours depending on cell type and experimental protocol.
Following cell treatment incubation period was complete, protein isolation was performed. Dishes of all treatment groups were washed twice with 2 ml, and once with 1 ml of ice cold 1× Phosphate Buffered Saline (PBS). The PBS was aspirated from the dishes after the initial 2 washes only. Cells were gently scraped and collected into microcentrifuge tubes using the final volume from the third wash and centrifuged at 10,000 rpm for 10 minutes. After centrifugation, the supernatant was aspirated and the pellet was lysed with 50 uL of lysis buffer (1 uL of protease and phosphotase inhibitor for every 100 uL of lysis buffer). Samples were then frozen overnight at −20° C.
After the cell treatment incubation period was complete, protein isolation was performed. Flasks of all treatment groups were washed twice with 5 mL, and once with 3 mL of ice cold 1×PBS. The PBS was aspirated from the flasks after the first 2 washes only. Cells were gently scraped and collected into 15 mL centrifuge tubes using the final volume from the third wash and centrifuged for at 10,000 rpm for 10 minutes. After centrifugation, the supernatant was aspirated and the pellet was lysed with an appropriate amount of lysis buffer (1 uL of protease and phosphotase inhibitor for every 100 uL of lysis buffer). Lysis buffer volume was dependent on pellet size. Samples were transferred in microcentrifuge tubes and frozen overnight at −20° C.
Samples were thawed at […] and sonicated to ensure homogenization the day following protein isolation. Protein quantification was performed using the micro BCA protein assay kit (Pierce). To prepare samples for Immuno-blotting, a 1:19 solution of betamercaptoethanol (Sigma) to sample buffer (Bio-Rad) was prepared. Samples were diluted 1:1 with the betamercaptoethanol-sample buffer solution, boiled at 95° C. for 5 minutes, and frozen overnight at −20° C.
The volume of sample to load per well was determined using the raw mean concentration of protein obtained from the BCA protein assay. Approximately 30-60 μg of protein were loaded for each treatment time point. Proteins were run in triplicate on 12% Tris-HCl ready gels (Bio-Rad) or hand cast gels in 1× running buffer at 85 and 100 volts. Proteins were then transferred onto nitrocellulose paper for an hour at 100 volts, and blocked for another hour in a 5% milk solution. […]

COC1=C(OC)C(=O)C(C/C=C(\C)CC/C=C(\C)CC/C=C(\C)CC/C=C(\C)CC/C=C(\C)CC/C=C(\C)CC/C=C(\C)CC/C=C(\C)CC/C=C(\C)CCC=C(C)C)=C(C)C1=O [Q10, Coenzyme Q10]
AKT1 mRNA Regulation ([1]; 100 μM Q10, 6 hours): Down regulated at 6 hours and then
BCL2L1 mRNA Regulation ([1]; 100 μM Q10, 6 hours): Down regulated at 6 hours and then
BIRC3 mRNA Regulation ([1]; 100 μM Q10, 6 hours): Down regulated at 6 hours.
CARD6 mRNA Regulation ([1]; 100 μM Q10, 6 hours): Down regulated at 6 hours.
CD27 mRNA Regulation ([1]; 100 μM Q10, 6 hours): Down regulated at 6 hours.
CD40 mRNA Regulation ([1]; 100 μM Q10, 6 hours): Down regulated at 6 hours.
CD70 mRNA Regulation ([1]; 100 μM Q10, 6 hours): Down regulated at 6 hours.
TNFRSF9 mRNA Regulation ([1]; 100 μM Q10, 6 hours): Down regulated at 6 hours.
TNFRSF21 mRNA Regulation ([1]; 100 μM Q10, 6 hours): Down regulated at 6 hours.
TNFRSF25 mRNA Regulation ([1]; 100 μM Q10, 6 hours): Down regulated at 6 hours and then
TP73 mRNA Regulation ([1]; 100 μM Q10, 6 hours): Down regulated at 6 hours and then
AKT1 mRNA Regulation ([1]; 100 μM Q10, 24 hours): up regulated at 24 hours.
BAG4 mRNA Regulation ([1]; 100 μM Q10, 24 hours): Up regulated at 24 hours.
BAX mRNA Regulation ([1]; 100 μM Q10, 24 hours): Up regulated at 24 hours.
BCL2L1 mRNA Regulation ([1]; 100 μM Q10, 24 hours): up regulated at 24 hours.
BCL2 mRNA Regulation ([1]; 100 μM Q10, 24 hours): Up regulated at 24 hours.
BNIP3 mRNA Regulation ([1]; 100 μM Q10, 24 hours): Down regulated at 24 hours.
CASP6 mRNA Regulation ([1]; 100 μM Q10, 24 hours): Up regulated at 24 hours.
CASP7 mRNA Regulation ([1]; 100 μM Q10, 24 hours): Up regulated at 24 hours.
FADD mRNA Regulation ([1]; 100 μM Q10, 24 hours): Up regulated at 24 hours.
GADD45A mRNA Regulation ([1]; 100 μM Q10, 24 hours): Up regulated at 24 hours.
HRK mRNA Regulation ([1]; 100 μM Q10, 24 hours): Up regulated at 24 hours.
TNFRSF25 mRNA Regulation ([1]; 100 μM Q10, 24 hours): up regulated at 24 hours.
TNFSF10 mRNA Regulation ([1]; 100 μM Q10, 24 hours): Up regulated at 24 hours.
TP53 mRNA Regulation ([1]; 100 μM Q10, 24 hours): Up regulated at 24 hours.
TP73 mRNA Regulation ([1]; 100 μM Q10, 24 hours): up regulated at 24 hours.
TRAF2 mRNA Regulation ([1]; 100 μM Q10, 24 hours): Up regulated at 24 hours.
Indication of Early apoptosis (Bcl-2, annexin V, or caspase activation) ([2]; BONE: Ewing's sarcoma (NCI)): Extremely strong
Minimal CoQ10 Concentration for early apoptosis ([2]; BONE: Ewing's sarcoma (NCI)): 5 µM
Minimal treatment Time for early apoptosis ([2]; BONE: Ewing's sarcoma (NCI)): 1 h
Indication of Early apoptosis (Bcl-2, annexin V, or caspase activation) ([2]; BONE: Osteosarcoma (143b)): Very Strong
Minimal CoQ10 Concentration for early apoptosis ([2]; BONE: Osteosarcoma (143b)): 50 µM
Minimal treatment Time for early apoptosis ([2]; BONE: Osteosarcoma (143b)): 48 h
Indication of Early apoptosis (Bcl-2, annexin V, or caspase activation) ([2]; BREAST: BT-20): Strong
Minimal CoQ10 Concentration for early apoptosis ([2]; BREAST: BT-20): 100 µM
Minimal treatment Time for early apoptosis ([2]; BREAST: BT-20): 48 h
Indication of Early apoptosis (Bcl-2, annexin V, or caspase activation) ([2]; BREAST: MCF-7): Strong
Minimal CoQ10 Concentration for early apoptosis ([2]; BREAST: MCF-7): 50 µM
Minimal treatment Time for early apoptosis ([2]; BREAST: MCF-7): 48 h
Indication of Early apoptosis (Bcl-2, annexin V, or caspase activation) ([2]; BREAST: MDA MB 468): Strong
Minimal CoQ10 Concentration for early apoptosis ([2]; BREAST: MDA MB 468): 100 µM
Minimal treatment Time for early apoptosis ([2]; BREAST: MDA MB 468): 48 h
Indication of Early apoptosis (Bcl-2, annexin V, or caspase activation) ([2]; BREAST: SkBr-3): Very Strong
Minimal CoQ10 Concentration for early apoptosis ([2]; BREAST: SkBr-3): 50 µM
Minimal treatment Time for early apoptosis ([2]; BREAST: SkBr-3): 24 h
Indication of Early apoptosis (Bcl-2, annexin V, or caspase activation) ([2]; BREAST: ZR-75): Slight
Minimal CoQ10 Concentration for early apoptosis ([2]; BREAST: ZR-75): 200 µM
Minimal treatment Time for early apoptosis ([2]; BREAST: ZR-75): 72 h
Indication of Early apoptosis (Bcl-2, annexin V, or caspase activation) ([2]; Fibroblasts (nFib)): None
Indication of Early apoptosis (Bcl-2, annexin V, or caspase activation) ([2]; Heart: Aortic smooth muscle (HASMC)): None
Indication of Early apoptosis (Bcl-2, annexin V, or caspase activation) ([2]; Keratinocytes (Heka, Hekn)): None
Indication of Early apoptosis (Bcl-2, annexin V, or caspase activation) ([2]; LIVER: Hep3B): Very Strong
Minimal CoQ10 Concentration for early apoptosis ([2]; LIVER: Hep3B): 50 µM
Minimal treatment Time for early apoptosis ([2]; LIVER: Hep3B): 24 h
Indication of Early apoptosis (Bcl-2, annexin V, or caspase activation) ([2]; LIVER: HepG2): Very Strong
Minimal CoQ10 Concentration for early apoptosis ([2]; LIVER: HepG2): 50 µM
Minimal treatment Time for early apoptosis ([2]; LIVER: HepG2): 24 h
Indication of Early apoptosis (Bcl-2, annexin V, or caspase activation) ([2]; Mammary fiboblasts: 184A1 and 184B5): None
Indication of Early apoptosis (Bcl-2, annexin V, or caspase activation) ([2]; Melanocytes (Hema, LP)): None
Indication of Early apoptosis (Bcl-2, annexin V, or caspase activation) ([2]; Melanoma (Skmel 2)): Very Strong
Minimal CoQ10 Concentration for early apoptosis ([2]; Melanoma (Skmel 2)): 25 µM
Minimal treatment Time for early apoptosis ([2]; Melanoma (Skmel 2)): 24 h
Indication of Early apoptosis (Bcl-2, annexin V, or caspase activation) ([2]; Melanoma (Skmel 28)): Strong
Minimal CoQ10 Concentration for early apoptosis ([2]; Melanoma (Skmel 28)): 20 µM
Minimal treatment Time for early apoptosis ([2]; Melanoma (Skmel 28)): 24 h
Indication of Early apoptosis (Bcl-2, annexin V, or caspase activation) ([2]; PANCREAS: PaCa2): Very Strong
Minimal CoQ10 Concentration for early apoptosis ([2]; PANCREAS: PaCa2): 25 µM
Minimal treatment Time for early apoptosis ([2]; PANCREAS: PaCa2): 24 h
Indication of Early apoptosis (Bcl-2, annexin V, or caspase activation) ([2]; PROSTATE: PC3): Very Strong
Minimal CoQ10 Concentration for early apoptosis ([2]; PROSTATE: PC3): 25 µM
Minimal treatment Time for early apoptosis ([2]; PROSTATE: PC3): 24 h
Indication of Early apoptosis (Bcl-2, annexin V, or caspase activation) ([2]; SCC, Squamous cell carcinoma): Very Strong
Minimal CoQ10 Concentration for early apoptosis ([2]; SCC, Squamous cell carcinoma): 25 µM
Minimal treatment Time for early apoptosis ([2]; SCC, Squamous cell carcinoma): 24 h
effect on normal cells, including keratinocytes and dermal fibroblasts ([2]; normal tissue environment): increased proliferation and migration
efficacy of treatment (induction of apoptosis) across cell types ([2]; panel of oncogenic and normal cell lines): greater in cell types that exhibited increased oncogenicity and/or greater metastatic potential
